Measurements: patent publication US10640457B2, “Histone acetyltransferase activators and uses thereof” (The Trustees of Columbia University in the City of New York, priority 2009, dated 2020)
Values joined by “and” are separate entries in the source; they are usually repeats but may differ in a detail not shown here. Equal values may be shown once. “Also recorded” adds a separate entry of the source.

How the values were obtained:
HDAC1 = HDAC1 (Homo sapiens, UniProt Q13547); experiment: HDAC1 fluorogenic activity assay; details: for % Activity: Repeat1/Repeat2, listed as OA2
HDAC1, sequence (Q13547 whole entry, the tested form may be a part): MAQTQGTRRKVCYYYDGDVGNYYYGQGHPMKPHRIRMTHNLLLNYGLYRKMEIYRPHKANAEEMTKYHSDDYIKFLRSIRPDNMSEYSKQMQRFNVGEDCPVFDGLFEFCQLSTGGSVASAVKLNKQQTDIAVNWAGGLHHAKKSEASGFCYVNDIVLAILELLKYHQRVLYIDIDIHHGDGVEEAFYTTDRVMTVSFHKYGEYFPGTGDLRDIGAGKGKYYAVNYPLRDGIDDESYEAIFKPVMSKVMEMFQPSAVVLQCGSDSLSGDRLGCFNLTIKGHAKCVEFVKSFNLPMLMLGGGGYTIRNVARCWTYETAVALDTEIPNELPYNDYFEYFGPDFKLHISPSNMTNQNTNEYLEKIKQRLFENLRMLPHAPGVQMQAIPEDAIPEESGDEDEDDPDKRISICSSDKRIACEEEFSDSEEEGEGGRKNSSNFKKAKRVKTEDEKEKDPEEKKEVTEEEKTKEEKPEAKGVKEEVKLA

Aβ42-infused mice = experiment: Contextual and cued fear conditioning in Aβ-infused mice (YF2); assay type: in vivo
Experimental: Contextual and cued fear conditioning was performed to assess whether the compound is capable of ameliorating amyloid-beta (Aβ) induced memory defect. Aβ is a peptide which is elevated in Alzheimer's disease. The hippocampus plays a key role in contextual memory and in Alzheimer's Disease. This type of cognitive test is much faster than other behavioral tasks that require multiple days of training and testing [Q1, Q2]; each herein incorporated by reference in its entirety. The conditioning chamber was in a sound-attenuating box. A clear Plexiglas window allowed the experimenter to film the mouse performance with a camera placed on a tripod and connected to the Freezeframe software (MED Ass. Inc.). To provide background white noise (72 dB), a single computer fan was installed in one of the sides of the sound-attenuating chamber. […] The floor was removable, and after each experimental subject, we cleaned it with 75% ethanol and then with water. Only one animal at a time was present in the experimentation room.
For the cued and contextual conditioning experiments, mice were placed in the conditioning chamber for 2 min before the onset of a discrete tone (CS) (a sound that lasted 30 sec at 2800 Hz and 85 dB). In the last 2 sec of the CS, mice were given a foot shock (US) of 0.8 mA for 2 sec through the bars of the floor. […] Freezing behavior, defined as the absence of all movement except for that necessitated by breathing, was scored using the Freezeview software.
To evaluate contextual fear learning, freezing was measured for 5 min (consecutively) in the chamber in which the mice was trained 24 hr after training. To evaluate cued fear learning, following contextual testing, the mice were placed in a novel context (triangular cage with smooth flat floor) for 2 min (pre-CS test), after which they were exposed to the CS for 3 min (CS test), and freezing was measured. Sensory perception of the shock was determined through threshold assessment. […] Initially, a […] shock was delivered for 1 sec, and the animal behavior was evaluated for flinching, jumping, and vocalization. […]

HDAC6 = molecular target: T1, HDAC6 (Homo sapiens, UniProt Q9UBN7); experiment: HDAC6 fluorogenic activity assay; details: for % Activity: Repeat1/Repeat2, listed as OA2
T1 sequence (Q9UBN7 1-1215): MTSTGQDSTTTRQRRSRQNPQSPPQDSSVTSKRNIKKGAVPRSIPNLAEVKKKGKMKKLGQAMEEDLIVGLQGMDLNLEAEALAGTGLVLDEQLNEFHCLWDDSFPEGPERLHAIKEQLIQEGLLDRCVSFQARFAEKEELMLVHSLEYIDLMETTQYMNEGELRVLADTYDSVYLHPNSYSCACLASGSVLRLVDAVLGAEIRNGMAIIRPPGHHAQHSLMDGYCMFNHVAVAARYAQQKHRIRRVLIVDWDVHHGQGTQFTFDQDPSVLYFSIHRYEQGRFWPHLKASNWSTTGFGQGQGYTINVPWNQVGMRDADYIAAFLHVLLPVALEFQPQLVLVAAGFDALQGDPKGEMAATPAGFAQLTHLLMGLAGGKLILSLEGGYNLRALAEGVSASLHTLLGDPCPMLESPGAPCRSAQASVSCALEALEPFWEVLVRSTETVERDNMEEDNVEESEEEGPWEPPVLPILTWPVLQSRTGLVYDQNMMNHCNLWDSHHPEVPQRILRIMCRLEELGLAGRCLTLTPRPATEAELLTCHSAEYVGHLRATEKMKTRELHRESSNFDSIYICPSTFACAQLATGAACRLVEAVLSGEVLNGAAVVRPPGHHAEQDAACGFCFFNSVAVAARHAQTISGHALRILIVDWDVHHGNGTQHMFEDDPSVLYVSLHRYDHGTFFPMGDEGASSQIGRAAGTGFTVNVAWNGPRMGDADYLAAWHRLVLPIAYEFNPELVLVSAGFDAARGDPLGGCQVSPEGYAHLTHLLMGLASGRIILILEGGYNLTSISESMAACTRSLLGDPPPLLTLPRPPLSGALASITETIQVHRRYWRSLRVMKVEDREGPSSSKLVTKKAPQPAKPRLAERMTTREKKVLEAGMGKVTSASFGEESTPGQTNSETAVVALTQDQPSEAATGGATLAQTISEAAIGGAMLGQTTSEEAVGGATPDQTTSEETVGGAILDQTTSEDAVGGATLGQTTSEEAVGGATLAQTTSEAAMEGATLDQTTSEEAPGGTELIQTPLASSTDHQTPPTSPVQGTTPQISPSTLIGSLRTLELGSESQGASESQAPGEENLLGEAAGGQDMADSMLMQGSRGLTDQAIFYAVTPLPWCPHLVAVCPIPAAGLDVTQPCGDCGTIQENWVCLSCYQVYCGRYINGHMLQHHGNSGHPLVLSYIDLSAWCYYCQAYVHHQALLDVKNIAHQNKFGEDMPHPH

CCOc1cccc(OCCN(C)C)c1C(=O)Nc1ccc(Cl)c(C(F)(F)F)c1 [YF2]
IC50 (HDAC1): > 200 µM
% Activity (HDAC1; OA2 Log[nM] 0.5): 98.80% and 98.28%
% Activity (HDAC1; OA2 Log[nM] 1.0): 97.64% and 98.21%
% Activity (HDAC1; OA2 Log[nM] 1.5): 96.72% and 97.14%
% Activity (HDAC1; OA2 Log[nM] 2.0): 96.42% and 96.10%
% Activity (HDAC1; OA2 Log[nM] 2.5): 95.81% and 97.49%
% Activity (HDAC1; OA2 Log[nM] 3.0): 96.63% and 95.68%
% Activity (HDAC1; OA2 Log[nM] 3.5): 93.12% and 97.60%
% Activity (HDAC1; OA2 Log[nM] 4.0): 91.35% and 92.53%
% Activity (HDAC1; OA2 Log[nM] 4.5): 92.01% and 90.19%
% Activity (HDAC1; OA2 Log[nM] 5.3): 63.73% and 61.76%
contextual memory, compound alone (Aβ42-infused mice; 20 mg/kg i.p., no Aβ): did not affect
contextual fear memory deficit (freezing time) (Aβ42-infused mice; Aβ42-infused mice, i.p. 20 mg/kg 2 hrs or 5 mg/kg 30 min before the electric shock): ameliorated; also recorded: dramatically increasing
cued memory (Aβ42-infused mice; different groups (vehicle, YF2, Aβ, YF2 plus Aβ)): not changed
IC50 (HDAC6): > 200 µM
% Activity (HDAC6; OA2 Log[nM] 0.5): 104.75% and 106.28%
% Activity (HDAC6; OA2 Log[nM] 1.0): 106.10% and 100.51%
% Activity (HDAC6; OA2 Log[nM] 1.5): 96.75% and 108.50%
% Activity (HDAC6; OA2 Log[nM] 2.0): 100.33% and 105.31%
% Activity (HDAC6; OA2 Log[nM] 2.5): 99.30% and 99.28%
% Activity (HDAC6; OA2 Log[nM] 3.0): 100.06% and 94.62%
% Activity (HDAC6; OA2 Log[nM] 3.5): 96.79% and 97.61%
% Activity (HDAC6; OA2 Log[nM] 4.0): 94.62% and 100.10%
% Activity (HDAC6; OA2 Log[nM] 4.5): 79.13% and 87.65%
% Activity (HDAC6; OA2 Log[nM] 5.3): 70.40% and 102.77%
